In one test the target is T1, A3AR (Mus musculus, UniProt Q61618).
T1 construct: endogenous in cells; host or cells: B16-F10 melanoma cells
T1 sequence (Q61618 1-319): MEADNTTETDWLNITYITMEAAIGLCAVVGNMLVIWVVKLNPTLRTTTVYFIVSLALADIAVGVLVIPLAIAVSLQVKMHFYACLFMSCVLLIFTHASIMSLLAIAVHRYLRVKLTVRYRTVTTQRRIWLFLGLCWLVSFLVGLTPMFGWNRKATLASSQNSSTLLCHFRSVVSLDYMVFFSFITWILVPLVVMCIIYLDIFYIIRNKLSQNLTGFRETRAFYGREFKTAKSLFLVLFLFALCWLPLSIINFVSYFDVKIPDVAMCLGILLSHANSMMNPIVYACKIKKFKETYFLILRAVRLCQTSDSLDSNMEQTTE
The experiment in a line: Western blot analysis of A3AR protein in B16-F10 melanoma cells. The format is cell-based. The note with it: B16-F10 melanoma cells, Western blot. The method, then:
To detect the level of expression of the A3AR proteins Western blot analysis was performed. Cells were incubated in the presence and absence of IB-MECA (10 nM), MRS1523 (10 nM), Forskolin (50 nM), 8 Br cAMP (100 μM), Cycloheximide 20 μg/ml or MG 132 (20 nM) for different time periods at 37° C. Cells were then rinsed with ice-cold PBS and transferred to ice-cold lysis buffer (TNN buffer, 50 mM Tris buffer pH=7.5, 150 mM NaCl, NP 40). In the experiment examining the effect of trypsin on A3AR expression, cells were incubated with 0.5 ml of 0.25% trypsin for 5 minutes. The trypsinized cells were washed again with ice-cold PBS, harvested by centrifugation and subjected to lysis in TNN buffer. Cell debris was removed by centrifugation for 10 minutes, at 7500 xg. The supernatant was utilized for Western Blot analysis. Protein concentrations were determined using the Bio-Rad protein assay dye reagent. Equal amounts of the sample (50 μg) were separated by SDS-PAGE, using 12% polyacrylamide gels. The resolved proteins were then electroblotted onto nitrocellulose membranes (Schleicher & Schuell, Keene, NH, USA). Membranes were blocked with 1% bovine serum albumin and incubated with the desired primary antibody (dilution 1:1000) for 24 hours at 4° C. Blots were then washed and incubated with a secondary antibody for 1 hour at room temperature. Bands were recorded using BCIP/NBT color development kit (Promega, Madison, W1, USA). Data presented in the different figures are representative of at least three different experiments.
Receptor internalization by treating melanoma cells with trypsin, which removes the cell surface receptor, was examined.
Time dependent expression of A3AR in the melanoma cells was examined by Western blot analysis.
On the technique in general: A western blot detects proteins with antibodies after separation by electrophoresis.

The next test has as its system B16-F10 melanoma. The experiment in a line: B16-F10 melanoma tumor growth in mice. The following applies: 100 μg/kg orally once daily, 15 days, p<0.0001. The test is classed as in vivo. The method, then:
Melanoma: C57BL/6J, male mice (Harlan Laboratories, Jerusalem, Israel) aged 2 months, weighing an average of 25 g were used. B16-F10 (2.5×105) melanoma cells were subcutaneously (s.c.) injected to the flank of the mice. IB-MECA at a dose of 100 μg/kg body weight was administered orally once daily, starting 24 hours after tumor cells' inoculation. The control group was treated daily, orally, with the vehicle only. Mice were sacrificed after 15 days, tumor lesions were excise and protein was extracted for measurements as described above. The tumor size (width (W) and length (L)) was measured with a caliber and calculated according to the following formula: Tumor Size =(W)2xL/2. Each group contained 15 mice and the study was repeated 3 times.
Consequently, an increase in the total GSK-3β level was noted, thereby leading to a decrease in the level of β-catenin.

In test [1] the test system is adjuvant induced arthritis. Put plainly: Adjuvant induced arthritis (AIA) in rats, clinical and histological score. The test is classed as in vivo. The method, then: AIA in Rats: Female Lewis rats, aged 8-12 weeks, obtained from Harlan Laboratories (Jerusalem, Israel), were injected subcutaneously (s.c.) at the tail base with 100 μl of suspension composed of incomplete Freund's adjuvant (IFA) with 10 mg/ml heat killed Mycobacterium tuberculosis, (Mt) H37Ra, (Difco, Detroit, USA). To assess the clinical disease activity score, the animals were inspected every second day for clinical arthritis. The scoring system ranged from 0-4 of each limb: 0-no arthritis; 1-redness or swelling of one toe/finger joint; 2-redness and swelling of more than one toe/finger joints; 3-the ankle and tarsal-metatarsal joints involvement; 4-entire paw redness or swelling. The arthritic score was calculated by adding the four individual legs' score to a maximum of 16. For histological scoring, Animals were sacrificed, the legs were removed up to the knee level, fixed in 10% formaldehyde, decalcified, dehydrated, paraffin-embedded, cut into 4 μm sections and stained by Hematoxylin-Eosin. The assessment of all pathologic findings were performed blind using semi-quantitative grading scales of 0 to 4 for the following parameters: a) extent of inflammatory cells' infiltration to the joint tissues; b) synovial lining cell hyperplasia; c) pannus formation; and d) joint cartilage layers destruction. […] TNF-α was measured in synovia, DLN and spleen tissues derived from control and CF101 treated rats. […] Protein concentrations were determined using the Bio-Rad protein assay dye reagent. […] Bands were recorded using BCIP/NBT color development kit (Promega, Madison, Wis., USA). Densitometry of protein expression was normalized against β-actin and expressed as % of control. […]

The structures appear in SMILES notation.

As for `CNC(=O)[C@H]1O[C@@H](n2cnc3c(NCc4cccc(I)c4)ncnc32)[C@H](O)[C@@H]1O` [IB-MECA, 1-deoxy-1-[6[[(3-iodophenyl)methyl]amino]-9H-purine-9-yl]-N-methyl-β-D-ribofura-nuronaminde], the “time dependent expression of A3AR” value on A3AR (different time points) is given as “sinusoidal pattern”. Besides, the A3AR protein level result at A3AR (versus untreated cells) was “down-regulated”. Besides, the “inhibition of B16-F10 melanoma tumor growth” value in the test with B16-F10 melanoma was found to be 76%. In addition, in test [1] (10 μg/kg orally twice daily, versus vehicle), the “clinical score (inflammatory response)” value is “anti-inflammatory response”. For the same compound, in test [1] (day 28, versus control), the histological score entry is listed as “anti-inflammatory activity”.

These data come from patent US20040229246A1, “Diagnostic markers for therapeutic treatment” (Can-Fite Biopharam Ltd., priority 2002, published 2004).
